Data published in PMC5078010 (Oncotarget, 2016).
Entries after “also recorded” stand apart in the source; their conditions may differ. Blank lines part the entries; values can stand above or below the molecule they belong to. FAM = carboxyfluorescein

Assays:
[1] = tested on: wild-type HDM2 (full-length) / p53 in p53/MDM2-null DKO cells; test: p53 reporter assay in DKO cells, WT HDM2; type: cell-based, mouse; settings: for p53 activity: percentage of p53-alone, ~ 6% without inhibitor
Procedure: (§1) Mouse embryonic fibroblast p53/Mdm2 double-knockout (DKO) cells (a kind gift from Guillermina Lozano) were maintained in Dulbecco's modified Eagle's medium (DMEM) with 10% (v/v) foetal calf serum (FCS) and 1% (v/v) penicillin/streptomycin. The cells were seeded at 1.0 × 10^5 cells/well in 6-well plates, 24 hours prior to transfection. Cells were co-transfected with parental or individual PM2-resistant HDM2 plasmid, p53-pcDNA plasmid, LacZ reporter plasmid and luciferase transfection efficiency plasmid using TurboFect transfection reagent (Thermo Scientific) according to the manufacturer's instructions. […] In all cases, the total amount of plasmid DNA transfected per well was equilibrated by addition of the parental vector pcDNA3.1a (+).
(§2) DKO cells were harvested 24hours post transfection and β-galactosidase activities were assessed using the Dual-light System (Applied Biosystems) according to the manufacturer's protocol. β-galactosidase activity was normalized with luciferase activity for each sample. To check for expression levels of relevant proteins via western blot, 5 μg of the cell lysates were probed for p53 with horseradish peroxidase conjugated DO1 antibody, for HDM2 and actin with anti-HA antibody and AC15 antibody respectively followed by rabbit anti-mouse.

[2] = tested on: HDM2-C8 (full-length) / p53 in p53/MDM2-null DKO cells; test: p53 reporter assay in DKO cells, HDM2-C8; type: cell-based, mouse
Procedure: as §1, §2

[3] = tested on: HDM2 Y60C (full length) / p53 in p53/MDM2-null DKO cells; test: p53 reporter assay in DKO cells, Y60C; type: cell-based, mouse; settings: knockdown of p53 activity decreased ~7 fold vs WT
Procedure: as §1, §2

HDM2 L82P = settings: at the cost of reduced p53 binding; cited from earlier work
Text: The crystal structure of the stapled peptide M06 bound to HDM2-M62A was recently described. […] The side chains of L34 and Y60 pack against numerous hydrophobic residues contributing to the p53-binding hydrophobic cleft (Figure 8). Mutations to less bulky residues (P and C respectively) likely result in altered struc ...

HDM2 M62A = settings: M62A mutation; earlier selection of Nutlin-resistant HDM2; cited from earlier work
[4] = tested on: xenograft tumours in mice; p53; parameters: method as in PMID 25145672, PMID 26070072; settings: cited from earlier work
[5] = tested on: WT and indicated C8-derived HDM2 (1-125) point mutants / p53; test: In vitro pull-down, Fig. S1A; type: binding, human
Procedure: (§3) Protein G beads were incubated with anti-HA (1μg per 10μL beads) for 1 hour in PBST-3%BSA and subsequently washed thrice in PBST-0.1%BSA. IVT-expressed protein was incubated with the beads on a rotator for 30 mins. […] IVT-containing secondary protein was added to the mixture and incubation allowed for 1 hour. Beads were finally washed thrice in PBST-0.1%BSA and thrice with PBS, and bound proteins eluted by resuspension in 20μL SDS-PAGE loading buffer and incubation at 95 °C for 5 minutes. Where required, blank IVT extract (no template DNA added) was used as control. The eluates were subjected to electrophoresis, transferred to nitrocellulose membranes and probed for p53 with DO1-HRP or for HDM2 with anti-HA antibody followed by rabbit anti-mouse (Dakocytomation). Image acquisition was carried out using either film or digitally (Odyssey FC, Li-Cor).

HDM2 F55A (1-125) / p53 = test: In vitro pull-down, F55A; type: binding, human; settings: HDM2 (1-125) F55A
Procedure: as §3

[6] = tested on: WT and indicated C11/C12-derived HDM2 (1-125) mutants / p53; test: In vitro pull-down, Fig. S1B; type: binding, human
Procedure: as §3

[7] = tested on: HDM2 I99V (full length) / p53 in p53/MDM2-null DKO cells; test: p53 reporter assay in DKO cells, I99V; type: cell-based, mouse; settings: knockdown reduced ~[…] vs WT
Procedure: as §1, §2

HDM2 K36E (1-125) / p53 = test: In vitro pull-down, K36E; type: binding, human; settings: HDM2 (1-125) K36E
Procedure: as §3

[8] = tested on: WT and indicated HDM2 (1-125) single and double point mutants / p53; test: In vitro pull-down, Fig. S3; type: binding, human
Procedure: as §3

[9] = tested on: HDM2 F55L (full length) / p53 in p53/MDM2-null DKO cells; test: p53 reporter assay in DKO cells, F55L; type: cell-based, mouse; settings: knockdown reduced ~[…] vs WT
Procedure: as §1, §2

[10] = tested on: HDM2 F55L (residues 1-125) / p53; test: In vitro pull-down, F55L; parameters: species or system human; settings: PM2 10 μM; N-terminal point mutant F55L; p53 binding retained
Procedure: as §3

[11] = tested on: HDM2-F55L (residues 7-134, RFP fusion) / p53 (residues 1-81, GFP fusion) in F2H-BHK cells; test: Fluorescent two-hybrid (F2H) co-localization assay; type: cell-based; settings: PM2 0-50 μM, 6-8 hours, serum-free DMEM, 37°C; n=2
[12] = tested on: C8-derived point mutants in full-length HDM2 / p53; test: In vitro pull-down, full-length point mutants; type: binding, human; settings: PM2 10 μM; full-length HDM2, mutations displaying the PM2-resistant phenotype
Procedure: as §3

HDM2 Y48C (1-125) / p53 = test: In vitro pull-down, Y48C; type: binding, human; settings: HDM2 (1-125) Y48C
Procedure: as §3

[13] = tested on: HDM2 Y67H (N-terminal domain) / p53; test: In vitro pull-down, Y67H; type: binding, human; settings: N-terminal point mutant Y67H
Procedure: as §3

[14] = tested on: HDM2 V108A (N-terminal domain) / p53; test: In vitro pull-down, V108A; type: binding, human; settings: N-terminal point mutant V108A
Procedure: as §3

[15] = tested on: HDM2 variant C8 (residues 1-125) / p53; test: In vitro pull-down, selectant C8; type: binding, human; settings: PM2 10 μM; HDM2 residues 1-125
Procedure: as §3

[16] = tested on: HDM2 variant C12 (residues 1-125) / p53; test: In vitro pull-down, selectant C12; type: binding, human; settings: PM2 10 μM; HDM2 residues 1-125
Procedure: as §3

[17] = tested on: HDM2 I99V (residues 1-125) / p53; test: In vitro pull-down, I99V; parameters: species or system human; settings: PM2 10 μM; N-terminal point mutant I99V; p53 binding retained
Procedure: as §3

[18] = tested on: HDM2 Y60C (residues 1-125) / p53; test: In vitro pull-down, Y60C; parameters: species or system human; settings: PM2 10 μM; N-terminal point mutant Y60C; reduced p53 binding
Procedure: as §3

[19] = tested on: HDM2 variant C11 (residues 1-125) / p53; test: In vitro pull-down, selectant C11; type: binding, human; settings: PM2 10 μM; HDM2 residues 1-125
Procedure: as §3

[20] = tested on: HDM2 P89S (residues 1-125) / p53; test: In vitro pull-down, P89S; parameters: species or system human; settings: PM2 10 μM; N-terminal point mutant P89S; p53 binding retained
Procedure: as §3

[21] = tested on: HDM2 L34P (full length) / p53 in p53/MDM2-null DKO cells; test: p53 reporter assay in DKO cells, L34P; type: cell-based, mouse; settings: knockdown of p53 activity decreased ~7 fold vs WT
Procedure: Mouse embryonic fibroblast p53/Mdm2 double-knockout (DKO) cells (a kind gift from Guillermina Lozano) [58] were maintained in Dulbecco's modified Eagle's medium (DMEM) with 10% (v/v) foetal calf serum (FCS) and 1% (v/v) penicillin/streptomycin. The cells were seeded at 1.0 × 10^5 cells/well in 6-well plates, 24 hours prior to transfection. […] In all cases, the total amount of plasmid DNA transfected per well was equilibrated by addition of the parental vector pcDNA3.1a (+).

[22] = tested on: HDM2-C8 (residues 1-125), M62A reverted / p53; test: In vitro pull-down, C8 with M62A reverted; type: binding, human
Procedure: as §3

[23] = tested on: HDM2 C77R (residues 1-125) / p53; test: In vitro pull-down, C77R; type: binding, human; settings: N-terminal point mutant C77R
Procedure: as §3

[24] = tested on: HDM2 P89S (full length) / p53 in p53/MDM2-null DKO cells; test: p53 reporter assay in DKO cells, P89S; type: cell-based, mouse; settings: PM2
Procedure: as §1, §2

[25] = tested on: HDM2 L34P (residues 1-125) / p53; test: In vitro pull-down, L34P; parameters: species or system human; settings: PM2 10 μM; N-terminal point mutant L34P; reduced p53 binding
Procedure: as §3

[26] = biological target: T1, HDM2 (amino acids 1-125), recombinant (human, UniProt Q00987 1-125); test: fluorescence polarisation; competitive fluorescence anisotropy, apparent Kd; PM2 or p53 peptide titrated against wild-type HDM2 at 150 nM or HDM2-F55L at 200 nM with 50 nM FAM-12-1 peptide; PBS pH 7.4, 3% DMSO, 0.1% Tween-20; settings: both partners purified
T1 construct: also called WT HDM2; source: E. coli BL21(DE3) pLysS, purified (GSTrap, on-column PreScission cleavage, Resource S cation exchange)
T1 sequence (Q00987 1-125): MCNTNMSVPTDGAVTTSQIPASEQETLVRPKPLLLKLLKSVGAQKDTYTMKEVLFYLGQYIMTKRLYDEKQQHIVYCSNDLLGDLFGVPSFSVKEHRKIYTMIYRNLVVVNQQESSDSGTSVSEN

[27] = biological target: T2, HDM2-F55L (amino acids 1-125), recombinant (human, UniProt Q00987 1-125, F55L); test: as above; settings: both partners purified
T2 construct: also called mutant HDM2-F55L; source: E. coli BL21(DE3) pLysS, purified (GSTrap, on-column PreScission cleavage, Resource S cation exchange)
T2 sequence (Q00987 1-125 F55L): as the sequence (Q00987 1-125) above, with F55L counted along it

Molecule: Nutlin [reference compound]
p53 activity ([1]; Nutlin 10 μM): ~ 26% | effect of Nutlin on C8 function ([2]; Nutlin 10 μM): had little effect in abrogating the function of C8 | rescue of p53 activity by Nutlin [3]: no rescue observed | resistance of L82P to Nutlin binding (HDM2 L82P): resistant to Nutlin binding at the cost of reduced p53 binding | effect of M62A on Nutlin binding (HDM2 M62A): shown to abrogate Nutlin binding

Molecule: CC(C)(C)C[C@@H]1N[C@@H](C(=O)N[C@H]2CC[C@H](O)CC2)[C@H](c2cccc(Cl)c2F)[C@]12C(=O)Nc1cc(Cl)ccc12 [SAR405838]
development of resistance [4]: development of resistance to the Nutlin analogue SAR405838 was associated with a point-mutated p53 that still retained activity

Molecule: CC(=O)N[C@H](C(=O)N[C@@H](CO)C(=O)N[C@@H](Cc1ccccc1)C(=O)N[C@]1(C)CCCCCCC=CCCC[C@@](C)(C(N)=O)NC(=O)[C@H](CC(C)C)NC(=O)[C@H](CC(C)C)NC(=O)[C@H](C)NC(=O)[C@H](Cc2c[nH]c3ccccc23)NC(=O)[C@H](Cc2ccc(O)cc2)NC(=O)[C@H](CCC(=O)O)NC1=O)[C@@H](C)O [PM2]
PM2 inhibition of p53 pull-down [5]: no significant reduction in PM2 inhibition | effect of F55A on interaction with p53 or PM2 (HDM2 F55A (1-125) / p53): make little difference towards interaction with p53 or PM2 | PM2 inhibition of p53 pull-down [6]: no significant reduction in PM2 inhibition | p53 activity ([1]; PM2 20 μM): ~ 26% | magnitude of rescue of p53 activity by PM2 ([1]; comparison with F55L and I99V (Figures 6B, 6C)): ~ 4 fold | increase in p53 activity on addition of PM2 ([2]; PM2 20 μM): did not result in any significant increase in p53 activity | magnitude of rescue of p53 activity by PM2 [7]: ~ 3.2 fold | rescue of p53 activity by PM2 [3]: no rescue observed | resistance phenotype (p53 pull-down) (HDM2 K36E (1-125) / p53): Only the L54P mutation showed an exceptionally weak resistance phenotype | PM2 inhibition of p53 pull-down [8]: no significant reduction in PM2 inhibition | magnitude of rescue of p53 activity by PM2 [9]: ~ 3.2 fold | PM2 resistance (inhibition of p53 pull-down) [10]: showed weak resistance to PM2 | inhibition of p53-HDM2 F55L interaction compared to WT [11]: no significant difference compared to WT for inhibition | PM2 resistance (inhibition of p53 pull-down) [12]: reduced inhibition by PM2; also recorded: behaved similarly when introduced as point mutants into full-length HDM2 | resistance phenotype (p53 pull-down) (HDM2 Y48C (1-125) / p53): Only the L54P mutation showed an exceptionally weak resistance phenotype | PM2 resistance (inhibition of p53 pull-down) [13]: showed no PM2-resistance phenotype | PM2 resistance (inhibition of p53 pull-down) [14]: showed no PM2-resistance phenotype | PM2 resistance (inhibition of p53 pull-down) [15]: appeared significantly resistant to PM2, with little or no reduction in their interaction with p53 in the presence of PM2 | PM2 resistance (inhibition of p53 pull-down) [16]: appeared significantly resistant to PM2, with little or no reduction in their interaction with p53 in the presence of PM2 | PM2 resistance (inhibition of p53 pull-down) [17]: showed weak resistance to PM2 | PM2 resistance (inhibition of p53 pull-down) [18]: clearly resistant to PM2 binding | PM2 resistance (inhibition of p53 pull-down) [19]: appeared significantly resistant to PM2, with little or no reduction in their interaction with p53 in the presence of PM2 | PM2 resistance (inhibition of p53 pull-down) [20]: showed weak resistance to PM2 | rescue of p53 activity by PM2 [21]: no rescue observed | PM2 resistance after reversion of M62A in C8 [22]: little impact upon reversion of the M62A mutation to PM2 binding in HDM2-C8; also recorded: reversion of this mutation in the C8 selectant did not alter the phenotype | PM2 resistance (inhibition of p53 pull-down) [23]: showed no PM2-resistance phenotype | behaviour in p53 reporter assay [24]: essentially behaved like wild-type HDM2 | PM2 resistance (inhibition of p53 pull-down) [25]: clearly resistant to PM2 binding

binding result [26]: binds | binding result [27]: binds
B1: carboxyfluorescein (FAM) labelled 12-1 peptide (peptide)
peptide: {FAM}-RFMDYWEGL-NH2
notes: tracer peptide of the fluorescence anisotropy assay; also called the labelled peptide
